Laboratory results as given in PubChem BioAssay (NCI).
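Exposure lasted 48 hours, with cells grown in 96-well plates and compounds tested at five concentrations. GI50 = concentration required for 50% inhibition of growth. TGI denotes the concentration required for complete inhibition of growth.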

Legend:
Test in all cases: NCI-60 cell line screen, 48 h
COLO 205 colon = test system: COLO 205 colon
SNB-75 CNS = test system: SNB-75 CNS
SR leukemia = test system: SR leukemia
UACC-257 melanoma = test system: UACC-257 melanoma
K-562 leukemia = test system: K-562 leukemia
SK-MEL-2 melanoma = test system: SK-MEL-2 melanoma
OVCAR-8 ovarian = test system: OVCAR-8 ovarian
MALME-3M melanoma = test system: MALME-3M melanoma
MCF7 breast = test system: MCF7 breast
SK-MEL-5 melanoma = test system: SK-MEL-5 melanoma
MDA-MB-231 breast = test system: MDA-MB-231 breast
SF-539 CNS = test system: SF-539 CNS
NCI-H226 lung = test system: NCI-H226 lung
M14 melanoma = test system: M14 melanoma
OVCAR-3 ovarian = test system: OVCAR-3 ovarian
786-0 renal = test system: 786-0 renal
PC-3 prostate = test system: PC-3 prostate
UO-31 renal = test system: UO-31 renal
SK-MEL-28 melanoma = test system: SK-MEL-28 melanoma
A498 renal = test system: A498 renal
NCI-H460 lung = test system: NCI-H460 lung
SNB-19 CNS = test system: SNB-19 CNS
RXF 393 renal = test system: RXF 393 renal
HCT-15 colon = test system: HCT-15 colon
HL-60(TB) leukemia = test system: HL-60(TB) leukemia
SF-268 CNS = test system: SF-268 CNS
IGROV1 ovarian = test system: IGROV1 ovarian
HCT-116 colon = test system: HCT-116 colon
TK-10 renal = test system: TK-10 renal
SF-295 CNS = test system: SF-295 CNS
A549 NSCLC = test system: A549 NSCLC
HOP-92 NSCLC = test system: HOP-92 NSCLC
OVCAR-5 ovarian = test system: OVCAR-5 ovarian
HS 578T breast = test system: HS 578T breast
CCRF-CEM leukemia = test system: CCRF-CEM leukemia
KM12 colon = test system: KM12 colon
NCI-H522 lung = test system: NCI-H522 lung
OVCAR-4 ovarian = test system: OVCAR-4 ovarian
MDA-MB-435 = test system: MDA-MB-435
SK-OV-3 ovarian = test system: SK-OV-3 ovarian
HT29 colon = test system: HT29 colon
HOP-62 NSCLC = test system: HOP-62 NSCLC
ACHN renal = test system: ACHN renal
CAKI-1 renal = test system: CAKI-1 renal
DU-145 prostate = test system: DU-145 prostate
HCC-2998 colon = test system: HCC-2998 colon
U251 CNS = test system: U251 CNS
BT-549 breast = test system: BT-549 breast
MOLT-4 leukemia = test system: MOLT-4 leukemia
SN12C renal = test system: SN12C renal
RPMI-8226 leukemia = test system: RPMI-8226 leukemia
EKVX NSCLC = test system: EKVX NSCLC
T-47D breast = test system: T-47D breast
LOX IMVI melanoma = test system: LOX IMVI melanoma
UACC-62 melanoma = test system: UACC-62 melanoma
NCI/ADR-RES ovarian = test system: NCI/ADR-RES ovarian
SW-620 colon = test system: SW-620 colon

Compound: CCc1cccc2c3c(sc12)C(c1ccc(OC)cc1)C(C#N)=C(/N=C/c1ccc(Cl)cc1)O3 (centres undefined)
- GI50 (COLO 205 colon): 2.2 µM
- TGI (COLO 205 colon): 5 µM
- GI50 (SNB-75 CNS): 1.35 µM
- TGI (SNB-75 CNS): 15.3 µM
- GI50 (SR leukemia): 0.361 µM
- TGI (SR leukemia): 5.97 µM
- GI50 (UACC-257 melanoma): 16.1 µM
- TGI (UACC-257 melanoma): > 100 µM
- GI50 (K-562 leukemia): 0.363 µM
- TGI (K-562 leukemia): > 100 µM
- GI50 (SK-MEL-2 melanoma): 0.987 µM
- TGI (SK-MEL-2 melanoma): 5.95 µM
- GI50 (OVCAR-8 ovarian): 2.15 µM
- TGI (OVCAR-8 ovarian): 7.09 µM
- GI50 (MALME-3M melanoma): 0.921 µM
- TGI (MALME-3M melanoma): 44.3 µM
- GI50 (MCF7 breast): 0.859 µM
- TGI (MCF7 breast): 14.1 µM
- GI50 (SK-MEL-5 melanoma): 2.81 µM
- TGI (SK-MEL-5 melanoma): 11.8 µM
- GI50 (MDA-MB-231 breast): 2.95 µM
- TGI (MDA-MB-231 breast): 13.6 µM
- GI50 (SF-539 CNS): 1.59 µM
- TGI (SF-539 CNS): 4.29 µM
- GI50 (NCI-H226 lung): 2.59 µM
- TGI (NCI-H226 lung): 13.1 µM
- GI50 (M14 melanoma): 1.24 µM
- TGI (M14 melanoma): 5.17 µM
- GI50 (OVCAR-3 ovarian): 0.554 µM
- TGI (OVCAR-3 ovarian): 4.49 µM
- GI50 (786-0 renal): 2.2 µM
- TGI (786-0 renal): 16.1 µM
- GI50 (PC-3 prostate): 1.83 µM
- TGI (PC-3 prostate): 22.1 µM
- GI50 (UO-31 renal): 1.85 µM
- TGI (UO-31 renal): 49.6 µM
- GI50 (SK-MEL-28 melanoma): 4.85 µM
- TGI (SK-MEL-28 melanoma): 28 µM
- GI50 (A498 renal): 20.1 µM
- TGI (A498 renal): > 100 µM
- GI50 (NCI-H460 lung): 1.02 µM
- TGI (NCI-H460 lung): 10.4 µM
- GI50 (SNB-19 CNS): 3.56 µM
- TGI (SNB-19 CNS): > 100 µM
- GI50 (RXF 393 renal): 0.72 µM
- TGI (RXF 393 renal): 2.56 µM
- GI50 (HCT-15 colon): 0.6 µM
- TGI (HCT-15 colon): 11.2 µM
- GI50 (HL-60(TB) leukemia): 0.563 µM
- TGI (HL-60(TB) leukemia): 5.98 µM
- GI50 (SF-268 CNS): 5.6 µM
- TGI (SF-268 CNS): 44.4 µM
- GI50 (IGROV1 ovarian): 1.67 µM
- TGI (IGROV1 ovarian): > 100 µM
- GI50 (HCT-116 colon): 1.07 µM
- TGI (HCT-116 colon): 10.3 µM
- GI50 (TK-10 renal): 20.5 µM
- TGI (TK-10 renal): > 100 µM
- GI50 (SF-295 CNS): 1.26 µM
- TGI (SF-295 CNS): 15.5 µM
- GI50 (A549 NSCLC): 5.39 µM
- TGI (A549 NSCLC): > 100 µM
- GI50 (HOP-92 NSCLC): 5.48 µM
- TGI (HOP-92 NSCLC): 53.3 µM
- GI50 (OVCAR-5 ovarian): 3.97 µM
- TGI (OVCAR-5 ovarian): 27.8 µM
- GI50 (HS 578T breast): 1.9 µM
- TGI (HS 578T breast): 7.8 µM
- GI50 (CCRF-CEM leukemia): 0.792 µM
- TGI (CCRF-CEM leukemia): 7.96 µM
- GI50 (KM12 colon): 2.06 µM
- TGI (KM12 colon): 33.2 µM
- GI50 (NCI-H522 lung): 0.78 µM
- TGI (NCI-H522 lung): 2.7 µM
- GI50 (OVCAR-4 ovarian): 6.65 µM
- TGI (OVCAR-4 ovarian): > 100 µM
- GI50 (MDA-MB-435): 0.227 µM
- TGI (MDA-MB-435): 0.578 µM
- GI50 (SK-OV-3 ovarian): 2.42 µM
- TGI (SK-OV-3 ovarian): 45.4 µM
- GI50 (HT29 colon): 2.31 µM
- TGI (HT29 colon): 6.26 µM
- GI50 (HOP-62 NSCLC): 2.5 µM
- TGI (HOP-62 NSCLC): 20.2 µM
- GI50 (ACHN renal): 3.16 µM
- TGI (ACHN renal): 19.4 µM
- GI50 (CAKI-1 renal): 0.595 µM
- TGI (CAKI-1 renal): 29.1 µM
- GI50 (DU-145 prostate): 3.3 µM
- TGI (DU-145 prostate): > 100 µM
- GI50 (HCC-2998 colon): 1.79 µM
- TGI (HCC-2998 colon): 4.57 µM
- GI50 (U251 CNS): 3 µM
- TGI (U251 CNS): 13.8 µM
- GI50 (BT-549 breast): 4.23 µM
- TGI (BT-549 breast): 39.7 µM
- GI50 (MOLT-4 leukemia): 2.25 µM
- TGI (MOLT-4 leukemia): 17.1 µM
- GI50 (SN12C renal): 3.76 µM
- TGI (SN12C renal): 19.1 µM
- GI50 (RPMI-8226 leukemia): 2.28 µM
- TGI (RPMI-8226 leukemia): 7.27 µM
- GI50 (EKVX NSCLC): 5.94 µM
- TGI (EKVX NSCLC): > 100 µM
- GI50 (T-47D breast): 2.43 µM
- TGI (T-47D breast): > 100 µM
- GI50 (LOX IMVI melanoma): 1.87 µM
- TGI (LOX IMVI melanoma): 15 µM
- GI50 (UACC-62 melanoma): 0.54 µM
- TGI (UACC-62 melanoma): 30.5 µM
- GI50 (NCI/ADR-RES ovarian): 0.55 µM
- TGI (NCI/ADR-RES ovarian): 4.7 µM
- GI50 (SW-620 colon): 1.14 µM
- TGI (SW-620 colon): 15.7 µM
